According to patent US10375956B2, “Herbicidally active 2-(substituted-phenyl)-cyclopentane-1,3-dione compounds and derivatives thereof” (Syngenta Limited, priority 2013, dated 2019):
Read-outs that look alike come from different tables or passages of the source.

How the values were obtained:
Format in all cases: in vivo
[1] = test system: Lolium perenne (LOLPE); test: Test 2 glasshouse assay (IF50 formulation, X-77), pre-emergence herbicidal activity; conditions: 480 h, 250 g/ha, 20DAA, read-out: Percentage phytotoxicity LOLPE
Protocol: (§1) Seeds of a variety of monocotyledonous and dicotyledonous test plants are sown in standard soil in pots. The plants are cultivated for one day (for pre-emergence) or for about 12 days (for post-emergence) under controlled conditions in a glasshouse (warm climate species at 24/18° C., cool climate species at 20/16° C., both at day/night; 16 hours light; 65% humidity).
(§2) An “instant formulation”, known as the “IF50”, containing 50 g/liter (i.e. 5% w/v) of the “technical” (i.e. unformulated) active ingredient is prepared by dissolving the active ingredient in a mixture of organic solvents and emulsifier, details of which are provided in the Table below. This IF50 is then mixed with a small, variable amount of acetone to aid dissolution, before addition of a 0.2% v/v aqueous solution of the adjuvant X-77 (which is a mixture of alkyl aryl polyoxyethylene glycols and free fatty acids in isopropanol, CAS Registry number 11097-66-8), as the aqueous diluent, to form an aqueous spray solution which contains a predetermined concentration of the active ingredient (which varies depending on the application rate of the active ingredient to the plants) and 0.2% v/v of the adjuvant X-77. This aqueous spray solution is then sprayed onto the plants, after one day's cultivation (for pre-emergence), or after about 12 days' cultivation (range=10-13 days) (for post-emergence).
(§3) The test plants are then grown on, in a glasshouse (greenhouse) under controlled conditions (warm climate species at 24/18° C., cool climate species at 20/16° C., both at day/night; 16 hours light; 65% humidity) and are watered twice daily. 15 days after application of the test herbicide (15DAA) (for post-emergence), and 20 days after application of the test herbicide (20DAA) (for pre-emergence), the test plants are evaluated visually, and an assessed percentage phytotoxicity score is given for each herbicidal application on each plant species (with 100%=total damage to plant; 0%=no damage to plant).
Cool climate (“cool season”) grassy monocotyledonous weeds: Alopecurus myosuroides (ALOMY), Avena fatua (AVEFA), Lolium perenne (LOLPE).

[2] = test system: Alopecurus myosuroides (ALOMY); test: Test 1 glasshouse assay, post-emergence herbicidal activity; conditions: 312 h, after 13 days, read-out: Percentage phytotoxicity ALOMY
Summary of the method: (§4)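 Plants sprayed 8 days after sowing with active ingredient in acetone/water (50:50) containing 0.5% Tween 20, grown in glasshouse at 24/16°C day/night, 14 h light, 65% humidity. Phytotoxicity scored visually after 13 days as percentage damage (100% = total damage; 0% = none).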

[3] = test system: Echinochloa crus-galli (ECHCG); test: as above; conditions: 312 h, after 13 days, read-out: Percentage phytotoxicity ECHCG
Summary of the method: as §4

[4] = test system: Digitaria sanguinalis (DIGSA); test: Test 2 glasshouse assay (IF50 formulation, X-77), post-emergence herbicidal activity; conditions: 360 h, 15 DAA, visual score, read-out: Post-emergence herbicidal activity (percentage phytotoxicity) DIGSA; for pest or weed control at 30 g/ha: application rate 30 g/ha; for pest or weed control at 125 g/ha: application rate 125 g/ha
Protocol: as §1, §2, §3
(§5) Warm climate (“warm season”) grassy monocotyledonous weeds: Setaria faberi (SETFA), Panicum miliaceum (PANMI), Sorghum vulgare Pers. (SORVU) (or Sorghum bicolor (L) Moench ssp. Bicolor), Digitaria sanguinalis (DIGSA), Echinochloa crus-galli (ECHCG), and Brachiaria plantaginea (BRAPL).

[5] = test system: Setaria faberi (SETFA); test: as above; conditions: 360 h, 15 DAA, visual score, read-out: Post-emergence herbicidal activity (percentage phytotoxicity) SETFA; for pest or weed control at 30 g/ha: application rate 30 g/ha; for pest or weed control at 125 g/ha: application rate 125 g/ha
Protocol: as §1, §2, §3, §5

[6] = test system: Brachiaria plantaginea (BRAPL); test: as above; conditions: Urochloa plantaginea, 360 h, 15 DAA, visual score, read-out: Post-emergence herbicidal activity (percentage phytotoxicity) BRAPL; for pest or weed control at 30 g/ha: application rate 30 g/ha; for pest or weed control at 125 g/ha: application rate 125 g/ha
Protocol: as §1, §2, §3, §5

[7] = test system: Sorghum vulgare Pers. (SORVU); test: as above; conditions: Sorghum bicolor, 360 h, 15 DAA, visual score, read-out: Post-emergence herbicidal activity (percentage phytotoxicity) SORVU; for pest or weed control at 30 g/ha: application rate 30 g/ha; for pest or weed control at 125 g/ha: application rate 125 g/ha
Protocol: as §1, §2, §3, §5

[8] = test system: Panicum miliaceum (PANMI); test: Test 2 glasshouse assay (IF50 formulation, X-77), pre-emergence herbicidal activity; conditions: 480 h, 250 g/ha, 20DAA, read-out: Percentage phytotoxicity PANMI
Protocol: as §1, §2, §3, §5

[9] = test system: Digitaria sanguinalis (DIGSA); test: as above; conditions: 480 h, 250 g/ha, 20DAA, read-out: Percentage phytotoxicity DIGSA
Protocol: as §1, §2, §3, §5

[10] = test system: Setaria faberi (SETFA); test: as above; conditions: 480 h, 250 g/ha, 20DAA, read-out: Percentage phytotoxicity SETFA
Protocol: as §1, §2, §3, §5

[11] = test system: Brachiaria plantaginea (BRAPL); test: as above; conditions: Urochloa plantaginea, 480 h, 250 g/ha, 20DAA, read-out: Percentage phytotoxicity BRAPL
Protocol: as §1, §2, §3, §5

[12] = test system: Echinochloa crus-galli (ECHCG); test: as above; conditions: 480 h, 250 g/ha, 20DAA, read-out: Percentage phytotoxicity ECHCG
Protocol: as §1, §2, §3, §5

[13] = test system: Sorghum vulgare Pers. (SORVU); test: as above; conditions: Sorghum bicolor, 480 h, 250 g/ha, 20DAA, read-out: Percentage phytotoxicity SORVU
Protocol: as §1, §2, §3, §5

[14] = post-emergence (Example 1B Table 1)
[15] = post-emergence (Example 1B Table 2)

| Compound | pest or weed control at 250 g/ha [1] [%] | pest or weed control at 30 g/ha [2, 14] [%] | pest or weed control at 250 g/ha [2, 14] [%] | pest or weed control at 250 g/ha [2, 15] [%] | pest or weed control at 250 g/ha [3, 14] [%] | pest or weed control at 250 g/ha [3, 15] [%] | pest or weed control at 30 g/ha [4] [%] | pest or weed control at 125 g/ha [4] [%] | pest or weed control at 30 g/ha [5] [%] | pest or weed control at 125 g/ha [5] [%] | pest or weed control at 30 g/ha [6] [%] | pest or weed control at 125 g/ha [6] [%] | pest or weed control at 30 g/ha [7] [%] | pest or weed control at 125 g/ha [7] [%] | pest or weed control at 250 g/ha [8] [%] | pest or weed control at 250 g/ha [9] [%] | pest or weed control at 250 g/ha [10] [%] | pest or weed control at 250 g/ha [11] [%] | pest or weed control at 250 g/ha [12] [%] | pest or weed control at 250 g/ha [13] [%] | also measured |
| --- | --- | --- | --- | --- | --- | --- | --- | --- | --- | --- | --- | --- | --- | --- | --- | --- | --- | --- | --- | --- | --- |
| C#CCC1CC(=O)C(c2c(Cl)cc(-c3ccc(F)cc3F)cc2OC)C1=O (centres unmarked) [Compound A12] | 100 | 80 | 100 | 100 | 100 | 100 | 70 | 100 | 20 | 100 | 70 | 100 | 90 | 100 | 100 | 100 | 100 | 100 | 80 | 90 | pest or weed control at 62.5 g/ha [2, 15]: 60%; pest or weed control at 30 g/ha [3, 14]: 100%; pest or weed control at 62.5 g/ha [3, 15]: 100% |
| C#CCC1CC(=O)C(c2c(Cl)cc(-c3ccc(F)c(F)c3)cc2OC)C1=O (centres unmarked) [Compound A13] | 100 | 90 | 100 | 100 | 100 | 100 | 100 | 100 | 100 | 100 | 90 | 100 | 100 | 100 | 100 | 100 | 100 | 100 | 100 | 100 | pest or weed control at 62.5 g/ha [2, 15]: 100%; pest or weed control at 30 g/ha [3, 14]: 100%; pest or weed control at 62.5 g/ha [3, 15]: 100% |
| C#CCC1CC(=O)C(c2c(F)cc(-c3ccc(Cl)cc3)cc2OC)C1=O (centres unmarked) [Compound A14] | 70 | – | 90 | 90 | 100 | 100 | – | 100 | – | 90 | – | 30 | – | 100 | 100 | 100 | 100 | 100 | 80 | 90 | pest or weed control at 62.5 g/ha [2, 14]: 70%; pest or weed control at 62.5 g/ha [3, 14]: 100% |
| C#CCC1CC(=O)C(c2c(F)cc(-c3ccc(F)c(F)c3)cc2OC)C1=O (centres unmarked) [Compound A22] | 20 | 70 | 100 | – | 100 | – | 70 | 100 | 80 | 100 | 90 | 100 | 70 | 100 | 80 | 90 | 90 | 90 | 70 | 70 | pest or weed control at 30 g/ha [3, 14]: 90% |
| C#CCC1CC(=O)C(c2c(CC)cc(C)cc2CC)C1=O (centres unmarked) [Compound A25, 2-(2,6-diethyl-4-methyl-phenyl)-4-(prop-2-ynyl)-cyclopentane-1,3-dione] | 90 | – | – | 100 | – | 100 | 100 | 100 | 90 | 100 | 100 | 100 | 100 | 100 | 90 | 100 | 80 | 100 | 100 | 90 | pest or weed control at 62.5 g/ha [2, 15]: 90%; pest or weed control at 62.5 g/ha [3, 15]: 100% |
